According to ChEMBL document CHEMBL3244272, “Folate antagonists. 15. 2,3-Diamino-6-(2-naphthylsulfonyl)quinazoline and related 2,4-diamino-6-[(phenyl and naphthyl)sulfinyl and sulfonyl]quinazolines, a potent new class of antimetabolites with phenomenal antimalarial activity” (J Med Chem, 1979):
Converted amounts (≈) assume the structure as drawn. The source made the active and inactive calls. The calls are words filed in the database; no cut-off is given here.

Legend:
[1] = test system: Plasmodium berghei; test: Antimalarial activity against trophozoite-induced Plasmodium berghei infected in mouse assessed as change in mean survival time at 2.5 mg/kg, sc single dose after 72 hrs of infection; format: functional; conditions: route subcutaneous
[2] = test system: Plasmodium gallinaceum; test: Antimalarial activity against trophozoite-induced Plasmodium gallinaceum infected in chick assessed as mean survival time at 1.25 mg/kg, sc single dose (reference value: 4 days); format: functional; conditions: route subcutaneous
[3] = test system: Plasmodium falciparum; test: Antimalarial activity against Plasmodium falciparum Malayan Camp CH/Q infected in po once daily dosed Owl monkey assessed as curative dose compound treated for 7 days; format: functional
[4] = Inhibition of Plasmodium berghei dihydrofolate reductase
[5] = test system: Plasmodium gallinaceum; test: Antimalarial activity against trophozoite-induced Plasmodium gallinaceum infected in chick assessed as mean survival time at 20 mg/kg, sc single dose (reference value: 4 days); format: functional; conditions: route subcutaneous
[6] = test system: Plasmodium gallinaceum; test: Antimalarial activity against trophozoite-induced Plasmodium gallinaceum infected in chick assessed as cured at 5 mg/kg, sc single dose; format: functional, organism-based; design: dose 5 mg/kg
[7] = test system: Plasmodium vivax; test: Antimalarial activity against Plasmodium vivax New Guinea Chesson in po once daily dosed Owl monkey assessed as curative dose compound treated for 7 days; format: functional
[8] = test system: Plasmodium berghei; test: Antimalarial activity against trophozoite-induced Plasmodium berghei infected in sc dosed mouse assessed as minimum curative dose; format: functional
[9] = test system: Plasmodium gallinaceum; test: Antimalarial activity against trophozoite-induced Plasmodium gallinaceum infected in chick assessed as mean survival time at 5 mg/kg, sc single dose (reference value: 4 days); format: functional; conditions: route subcutaneous
[10] = test system: Plasmodium falciparum; test: Antimalarial activity against Plasmodium falciparum Vietnam Smith in po dosed Owl monkey assessed as curative dose compound treated for 7 days in presence of 5 mg/kg sulfadiazine for 7 days; format: functional
[11] = test system: Staphylococcus aureus; test: Antibacterial activity against Staphylococcus aureus UC-76 assessed as growth inhibition; format: functional
[12] = test system: Plasmodium vivax; test: Antimalarial activity against Plasmodium vivax VietnamPalo Alto in po dosed Owl monkey assessed as curative dose compound treated for 7 days in presence of 5 mg/kg sulfadiazine for 7 days; format: functional
[13] = test system: Plasmodium falciparum; test: Antimalarial activity against Plasmodium falciparum Vietnam Oak Knoll in po dosed Owl monkey assessed as curative dose compound treated for 7 days in presence of 5 mg/kg sulfadiazine for 7 days; format: functional
[14] = test system: Gallus gallus; test: Toxicity in trophozoite-induced Plasmodium gallinaceum infected in chick assessed as death at 5 mg/kg, sc single dose measured within 48 hrs; format: organism-based; design: dose 5 mg/kg, route subcutaneous; conditions: chicken, in vivo
[15] = test system: Escherichia coli; test: Antibacterial activity against Escherichia coli Vogel assessed as growth inhibition; format: functional
[16] = test system: Pseudomonas aeruginosa; test: Antibacterial activity against Pseudomonas aeruginosa 28 assessed as growth inhibition; format: functional
[17] = test system: Gallus gallus; test: Toxicity in trophozoite-induced Plasmodium gallinaceum infected in chick assessed as death at 1.25 mg/kg, sc single dose measured within 48 hrs; format: organism-based; design: dose 1.25 mg/kg, route subcutaneous; conditions: chicken, in vivo
[18] = test system: Gallus gallus; test: Toxicity in trophozoite-induced Plasmodium gallinaceum infected in chick assessed as death at 10 mg/kg, sc single dose measured within 48 hrs; format: organism-based; design: dose 10 mg/kg, route subcutaneous; conditions: chicken, in vivo
[19] = test system: Staphylococcus aureus; test: Antibacterial activity against Staphylococcus aureus S18713 assessed as growth inhibition; format: functional
[20] = test system: Plasmodium gallinaceum; test: Antimalarial activity against trophozoite-induced Plasmodium gallinaceum infected in chick assessed as cured at 1.25 mg/kg, sc single dose; format: functional, organism-based; design: dose 1.25 mg/kg
[21] = test system: Gallus gallus; test: Toxicity in trophozoite-induced Plasmodium gallinaceum infected in chick assessed as death at 40 mg/kg, sc single dose measured within 48 hrs; format: organism-based; design: dose 40 mg/kg, route subcutaneous; conditions: chicken, in vivo
[22] = test system: Plasmodium falciparum; test: Antimalarial activity against Plasmodium falciparum Malayan Camp CH/Q infected in po dosed Owl monkey assessed as curative dose compound treated for 7 days in presence of 5 mg/kg sulfadiazine for 7 days; format: functional
[23] = test system: Plasmodium berghei; test: Antimalarial activity against trophozoite-induced Plasmodium berghei infected in mouse assessed as change in mean survival time at 1.25 mg/kg, sc single dose after 72 hrs of infection; format: functional; conditions: route subcutaneous
[24] = test system: Plasmodium gallinaceum; test: Antimalarial activity against trophozoite-induced Plasmodium gallinaceum infected in chick assessed as mean survival time at 40 mg/kg, sc single dose (reference value: 4 days); format: functional; conditions: route subcutaneous
[25] = test system: Plasmodium gallinaceum; test: Antimalarial activity against trophozoite-induced Plasmodium gallinaceum infected in chick assessed as cured at 10 mg/kg, sc single dose; format: functional, organism-based; design: dose 10 mg/kg
[26] = test system: Plasmodium gallinaceum; test: Antimalarial activity against trophozoite-induced Plasmodium gallinaceum infected in chick assessed as cured at 40 mg/kg, sc single dose; format: functional, organism-based; design: dose 40 mg/kg
[27] = test system: Plasmodium gallinaceum; test: Antimalarial activity against cycloguanil-resistant Plasmodium gallinaceum infected in mouse assessed as dose required to suppress parasitemia by 90% compound treated through gavage for 3 days; format: functional
[28] = test system: Plasmodium gallinaceum; test: Antimalarial activity against trophozoite-induced Plasmodium gallinaceum infected in chick assessed as mean survival time at 10 mg/kg, sc single dose (reference value: 4 days); format: functional; conditions: route subcutaneous
[29] = test system: Shigella sonnei; test: Antibacterial activity against Shigella sonnei C-10 assessed as growth inhibition; format: functional
[30] = test system: Enterococcus faecalis; test: Antibacterial activity against Streptococcus faecalis MGH-2 assessed as growth inhibition; format: functional
[31] = test system: Plasmodium falciparum; test: Antimalarial activity against Plasmodium falciparum Vietnam Smith in po once daily dosed Owl monkey assessed as curative dose compound treated for 7 days; format: functional
[32] = test system: Plasmodium gallinaceum; test: Antimalarial activity against cycloguanil-resistant Plasmodium gallinaceum infected in mouse assessed as dose required to suppress parasitemia by 90% compound treated through gavage for 3 days relative to parent strain; format: functional
[33] = test system: Mycobacterium tuberculosis; test: Antibacterial activity against Mycobacterium tuberculosis H37Rv assessed as growth inhibition; format: functional
[34] = test system: Plasmodium gallinaceum; test: Antimalarial activity against trophozoite-induced Plasmodium gallinaceum infected in chick assessed as mean survival time at 2.5 mg/kg, sc single dose (reference value: 4 days); format: functional; conditions: route subcutaneous
[35] = test system: Enterococcus faecalis; test: Antibacterial activity against Streptococcus faecalis assessed as growth inhibition; format: functional, organism-based
[36] = test system: Plasmodium falciparum; test: Antimalarial activity against chloroquine-resistant, pyrimethamine-sensitive Plasmodium falciparum Vietnam Oak Knoll in Aotus monkey assessed as dose required to >50% cures compound treated for 7 days; format: functional
[37] = test system: Gallus gallus; test: Toxicity in trophozoite-induced Plasmodium gallinaceum infected in chick assessed as death at 2.5 mg/kg, sc single dose measured within 48 hrs; format: organism-based; design: dose 2.5 mg/kg, route subcutaneous; conditions: chicken, in vivo
[38] = test system: Plasmodium gallinaceum; test: Antimalarial activity against trophozoite-induced Plasmodium gallinaceum infected in chick assessed as cured at 2.5 mg/kg, sc single dose; format: functional, organism-based; design: dose 2.5 mg/kg
[39] = test system: Plasmodium falciparum; test: Antimalarial activity against chloroquine-sensitive, pyrimethamine-resistant Plasmodium falciparum Malayan Camp CH/Q infected in Aotus monkey assessed as dose required to >50% cures compound treated for 7 days; format: functional
[40] = test system: Plasmodium falciparum; test: Antimalarial activity against Plasmodium falciparum Vietnam Oak Knoll in po once daily dosed Owl monkey assessed as curative dose compound treated for 7 days; format: functional
[41] = test system: Lacticaseibacillus casei; test: Antibacterial activity against Lactobacillus casei assessed as growth inhibition; format: functional, organism-based
[42] = Antibacterial activity against Pediococcus cerevisiae assessed as growth inhibition; format: functional
[43] = test system: Plasmodium gallinaceum; test: Antimalarial activity against trophozoite-induced Plasmodium gallinaceum infected in chick assessed as cured at 20 mg/kg, sc single dose; format: functional, organism-based; design: dose 20 mg/kg
[44] = test system: Plasmodium vivax; test: Antimalarial activity against Plasmodium vivax VietnamPalo Alto in po once daily dosed Owl monkey assessed as curative dose compound treated for 7 days; format: functional
[45] = test system: Plasmodium berghei; test: Antimalarial activity against trophozoite-induced Plasmodium berghei infected in mouse assessed as change in mean survival time at 5 mg/kg, sc single dose after 72 hrs of infection; format: functional; conditions: route subcutaneous
[46] = test system: Gallus gallus; test: Toxicity in trophozoite-induced Plasmodium gallinaceum infected in chick assessed as death at 20 mg/kg, sc single dose measured within 48 hrs; format: organism-based; design: dose 20 mg/kg, route subcutaneous; conditions: chicken, in vivo
[47] = Toxicity in chloroquine-sensitive, pyrimethamine-resistant Plasmodium falciparum Malayan Camp CH/Q infected in Aotus monkey compound treated for 7 days; conditions: in vivo
[48] = test system: Plasmodium berghei; test: Antimalarial activity against trophozoite-induced Plasmodium berghei infected in mouse assessed as change in mean survival time at 20 mg/kg, sc single dose after 72 hrs of infection; format: functional; conditions: route subcutaneous
[49] = test system: Plasmodium berghei; test: Antimalarial activity against trophozoite-induced Plasmodium berghei infected in mouse assessed as change in mean survival time at 10 mg/kg, sc single dose after 72 hrs of infection; format: functional; conditions: route subcutaneous

Question: With Nc1nc(N)c2cc(S(=O)(=O)c3ccc4ccccc4c3)ccc2n1 as the molecule, how does the MST [1] read?
Answer: 12.1 days

Question: What about the MST [2] of the same molecule?
Answer: 6 days

Question: What about the CD90 [3] of the same molecule?
Answer: 0.39 mg/kg

Question: What about the IC50 [4] of the same molecule?
Answer: 2.4 nM

Question: What about the MST [5] of the same molecule?
Answer: 15 days

Question: What about the Activity [6] of the same molecule?
Answer: Active

Question: And the CD90 [7]?
Answer: 0.39 mg/kg

Question: What about the MCD [8] of the same molecule?
Answer: 20 mg/kg

Question: What about the MST [9] of the same molecule?
Answer: 11.8 days

Question: And the CD90 [10]?
Answer: 0.39 mg/kg

Question: What about the MIC [11] of the same molecule?
Answer: 25 µg/mL (≈ 71.3 µM)

Question: And the CD90 [12]?
Answer: 0.098 mg/kg

Question: And the CD90 [13]?
Answer: 0.00156 mg/kg

Question: What about the Activity [14] of the same molecule?
Answer: Toxic

Question: And the MIC [15]?
Answer: > 25 µg/mL

Question: And the MIC [16]?
Answer: > 25 µg/mL

Question: What about the Activity [17] of the same molecule?
Answer: Toxic

Question: And the Activity [18]?
Answer: Toxic

Question: What about the MIC [19] of the same molecule?
Answer: > 25 µg/mL

Question: What about the Activity [20] of the same molecule?
Answer: Active

Question: What about the Activity [21] of the same molecule?
Answer: Toxic

Question: And the CD90 [22]?
Answer: 0.025 mg/kg

Question: What about the MST [23] of the same molecule?
Answer: 10.9 days

Question: And the MST [24]?
Answer: 20.4 days

Question: What about the Activity [25] of the same molecule?
Answer: Active

Question: And the Activity [26]?
Answer: Active

Question: And the Activity [27]?
Answer: 2.4 mg/kg

Question: And the MST [28]?
Answer: 13 days

Question: What about the MIC [29] of the same molecule?
Answer: > 25 µg/mL

Question: And the MIC [30]?
Answer: > 25 µg/mL

Question: What about the CD90 [31] of the same molecule?
Answer: >6.25 mg/kg

Question: What about the “fold change (FC)” value [32] of the same molecule?
Answer: 0

Question: And the MIC [33]?
Answer: > 25 µg/mL

Question: What about the MST [34] of the same molecule?
Answer: 8.8 days

Question: What about the IC50 [35] of the same molecule?
Answer: 0.007 ng/mL (≈ 2e-05 µM)

Question: What about the Activity [36] of the same molecule?
Answer: 0.025 mg/kg

Question: What about the Activity [37] of the same molecule?
Answer: Toxic

Question: And the Activity [38]?
Answer: Active

Question: What about the Activity [39] of the same molecule?
Answer: 0.39 mg/kg

Question: And the CD90 [40]?
Answer: 0.098 mg/kg

Question: What about the IC50 [41] of the same molecule?
Answer: 0.00014 µg/mL (≈ 0.0004 µM)

Question: What about the IC50 [42] of the same molecule?
Answer: 0.00016 µg/mL (≈ 0.000457 µM)

Question: And the Activity [43]?
Answer: Active

Question: What about the CD90 [44] of the same molecule?
Answer: 6.25 mg/kg

Question: What about the MST [45] of the same molecule?
Answer: 15.6 days

Question: What about the Activity [46] of the same molecule?
Answer: Toxic

Question: With CCc1nc(N)nc(N)c1-c1ccc(Cl)cc1 [PYRIMETHAMINE] as the molecule, how does the MST [1] read?
Answer: 4.7 days

Question: And the CD90 [7]?
Answer: 0.625 mg/kg

Question: What about the MTD at 168 h [47] of the same molecule?
Answer: > 2.5 mg/kg

Question: What about the MST [23] of the same molecule?
Answer: 3.1 days

Question: What about the MST [48] of the same molecule?
Answer: 7.7 days

Question: And the Activity [36]?
Answer: 0.6 mg/kg

Question: What about the MST [49] of the same molecule?
Answer: 6.1 days

Question: And the CD90 [40]?
Answer: 0.15 mg/kg

Question: And the MST [45]?
Answer: 5.3 days
